Source: publication PMC8961551, “Potential Anticancer Agents against Melanoma Cells Based on an As-Synthesized Thiosemicarbazide Derivative” (Biomolecules, 2022)
Where two headings read alike, the source gives them in different places.

Experiments:
[1] = system: dihydroorotate dehydrogenase (DHODH); assay: qRT-PCR relative mRNA expression, DHODH; type: cell-based, human; conditions: G-361, 48 h incubation, RQ = 2^-ΔΔCt, mean ± SD, control 1.000
Procedure: (§1) […] cell line was seeded into 6-well plates in the concentration of 4 × 10^5 cells/well. Thiosemicarbazide derivatives were added when 70–80% of confluence was achieved. After 48 h of incubation, 1 mL of TRIzol™ Reagent (Invitrogen, Carlsbad, CA, USA) was added to lyse the cells. Lysates were centrifuged for 5 min at 12,000× g at 4 °C, and clear supernatants were processed according to the manufacturer’s protocol. Then, reverse transcription was performed using NG dART RT-PCR kit (EURx, Gdańsk, Poland) and a Mastercycler gradient thermocycler (Eppendorf, Hamburg, Germany). Thermal profile of the reaction: 10 min at 25 °C, then 50 min at 50 °C, and 5 min at 85 °C. mRNA levels of the genes DHODH, 18SRNA, and BACT were assessed using TaqMan Fast Advanced Master Mix (ThermoFisher, Waltham, MA, USA). mRNA levels of the following genes: CAT, SOD2,18SRNA TBP were assessed using PowerUp SYBR Green Master Mix (ThermoFisher, Waltham, MA, USA) in a 7500 Fast Real-Time PCR System (ThermoFisher, Waltham, MA, USA). Thermal profile of the reactions performed: 20 s at 95 °C, followed by 40 cycles of 3 s at 95 °C and 30 s at 60 °C. The reaction was carried out in triplicates. Relative expression of the tested genes was determined by qRT-PCR and the ΔΔCt method. The statistical analysis was performed with RQ values (relative quantification, RQ = 2^−∆ΔCt).

G-361 melanoma = assay: MTT cytotoxicity, G-361 melanoma; type: cell-based, human; conditions: for cytotoxic to melanoma cells (MTT test): G-361, concentration range used; for IC50: MTT test, 24 h treatment, G-361 melanoma
Procedure: (§2) Biological studies were performed on human malignant melanoma G-361 (ATCC CRL-1424) cell lines and human fibroblast BJ (ATCC® CRL-2522™) cell lines purchased from the American Type Culture Collection (ATCC, Manassas, VA USA). The G-361 cell lines were maintained in McCoy’s medium (Corning, NY, USA), and the fibroblast BJ cell line was cultured in EMEM (Corning, NY, USA). All media were supplemented with 10% heat-inactivated fetal bovine serum (PAN-Biotech, Aidenbach, Germany), 100 U/mL penicillin, 100 μg/mL streptomycin and 0.25 μg/mL amphotericin B (Sigma-Aldrich, St. Louis, MO, USA). Cultures were maintained at 37 °C in a humidified atmosphere of 95% air and 5% CO2. The experiments were performed using cells from passage 5 to 10.
(§3) The cytotoxicity of the new compounds was evaluated against both the G-361 and BJ cell lines. Cells were seeded into 96-well plates at a density of 3 × 10^4 cells/well and 2 × 10^4 cells/well. After 24 h of incubation, when 70–80% confluence was reached, the culture medium was removed and replaced with the fresh one containing the tested compounds in the concentration range of 10, 25, 50, 75, 100, 125 and 250 μM. Cells were cultured at 37 °C in the presence of 5% air with CO2 for another 24 h. The cytotoxicity of the test compounds was evaluated by the MTT colorimetric assay, based on the ability of live cells to convert yellow soluble tetrazolium salts (3-[4,5-dimethylthiazol-2-yl]- 2,5-diphenyltetrazolium bromide, MTT) to purple insoluble formazan by cellular dehydrogenase. After 24 h of incubation with solutions of the test compounds, 4 mg/mL MTT solution (Thermo Scientific, Waltham, MA, USA) was added to the cell cultures and incubation was continued for 4 h at 37 °C. The MTT medium was then removed, and the resulting crystals were dissolved in 200 µL of DMSO. The solution was measured for absorbance at 570 nm using a Power Wave xs spectrophotometric plate reader, BioTek Instruments (Winooski, VT, USA). The experiment was performed three times with three replicates for each concentration. IC50 values were determined using the AAT Bioquest IC50 calculator.

catalase (CAT) = assay: qRT-PCR relative mRNA expression, CAT; type: cell-based, human; conditions: for CAT expression change: G-361; for Relative mRNA expression level CAT (RQ): G-361, 48 h incubation, RQ = 2^-ΔΔCt, mean ± SD, control 1.016
Procedure: as §1

melanoma line G-361 = assay: Intracellular thiol / reduced glutathione (GSH) content, VB-48 vitality assay; type: cell-based, human; conditions: G-361, 24 h, compound at IC50 concentration, representative histogram; quadrant not defined in legend
Procedure: Analyses of the levels of cellular thiols were performed using NC 3000 system (Chemometec., Lillerød, Denmark) according to the manufacturer’s protocol for the cell vitality assay. The G-361 cells were seeded in 12-well culture plates at a density of 1 × 10^5 cell/mL and the tested compounds in concentrations corresponding to IC50 value were added when 70–80% of confluence was achieved. The cells were counted, and suspended in 1 mL of culture medium. A representative sample of 190 uL was pipetted into the new Eppendorf tubes and 10 µL of Solution 5 (which contains acridine orange (AO) that stains all nucleated cells; PI which stains dead cells only; and VitaBright-48 TM ([…]) which stains viable cells in an intensity-dependent manner reliant on the level of thiols) was added to the cell suspension. Next, the stained cells were loaded into 8-chamber NC-Slides A8™ (Chemometec., Lillerød, Denmark) and measured using the Vitality (VB-48) Assay protocol in the NC-3000 image cytometer. The experiment was performed three times with three replicates.

[2] = system: BJ normal fibroblast cell line; assay: MTT cytotoxicity, BJ normal fibroblasts; type: cell-based, human; conditions: for toxic to normal fibroblasts (MTT test): BJ, concentration range used; for IC50: MTT test
Procedure: as §2, §3

RP-HPLC lipophilicity = type: physicochemical; conditions: for logkW (chromatographic lipophilicity parameter): Kinetex C18, methanol-water 55-80%, extrapolated to 0% methanol; for -S HPLC (slope of linear equation): Table S3
Procedure: RP-HPLC analysis was performed using a Merck-Hitachi LaChrom Elite System (Merck, Darmstadt, Germany) with diode array detector L-2455, thermostat L-2300, pump L-2130 and autosampler L-2200 with a Kinetex C18 (5µm; 150 × 4,6mm) chromatographic column (Phenomenex, Torrance, USA) as the stationary phase. The mobile phase consisted of methanol (Merck, Darmstadt, Germany) and water (double-distilled), which was degassed by use of the built-in membrane degasser. Subsequently, 5 μL methanolic solution (0.1%; m/v) of the selected samples was applied to the chromatographic column by use of a Hitachi L-2200 autosampler (LaChrom Elite, Hitachi-Merck, Darmstadt, Germany). The analysis was performed with a flow rate of 0.7 mL min^−1 in isocratic mode using various concentrations of organic modifier (methanol) in binary polar mobile phases; percentages of methanol in water were 55–80% (%, v/v) and changed by 5% per step. Chromatograms were detected at 254 nm and the temperature of the column was 25 °C. All experiments were repeated in triplicate and the final results were taken to be the arithmetic means. Dead time was measured using uracil (Calbiochem. Merck, Darmstadt, Germany).

[3] = 24 h treatment, BJ normal fibroblasts, concentration range 10-250 µM, read-out: IC50 BJ
[4] = BJ fibroblasts, further analysis, value in parentheses after >250, read-out: IC50 BJ (value in parentheses)

| Structure (SMILES) | Relative mRNA expression level DHODH (RQ) [1] | cytotoxic to melanoma cells (MTT test) (G-361 melanoma) | IC50 (G-361 melanoma; Homo sapiens) | CAT expression change (catalase (CAT)) | Relative mRNA expression level CAT (RQ) (catalase (CAT)) | GSH content analysis, quadrant Q1ll (melanoma line G-361) | GSH content analysis, quadrant Q1lr (melanoma line G-361) | GSH content analysis, quadrant Q1ul (melanoma line G-361) | GSH content analysis, quadrant Q1ur (melanoma line G-361) | toxic to normal fibroblasts (MTT test) [2] | IC50 ([2]; Homo sapiens, Fibroblast, 24 h treatment, BJ normal fibroblasts, concentration range 10-250 µM, read-out: IC50 BJ) | IC50 ([2]; Homo sapiens, Fibroblast, BJ fibroblasts, further analysis, value in parentheses after >250, read-out: IC50 BJ (value in parentheses)) | logkW (chromatographic lipophilicity parameter) (RP-HPLC lipophilicity) | -S HPLC (slope of linear equation) (RP-HPLC lipophilicity) | IC50 (G-361 melanoma) | IC50 [2, 3] | IC50 [2, 4] |
| --- | --- | --- | --- | --- | --- | --- | --- | --- | --- | --- | --- | --- | --- | --- | --- | --- | --- |
| CSc1ccc(NC(=S)NNC(=O)COc2ccc(Cl)cc2Cl)cc1 [PK2, 1-(2,4-dichlorophenoxy)acetyl-4-(4-metylothiophenyl)thiosemicarbazide] | 0.463 ± 0.016 | cytotoxic | 108 ± 6 µM | reduction | 0.107 ± 0.013 | 3% | 44% | 30% | 23% | not toxic | > 250 µM | 828 µM | 4.7804 | 6.3581 | – | – | – |
| O=C(COc1ccc(Cl)cc1Cl)NNC(=S)Nc1ccccc1I [PK6, 1-(2,4-dichlorophenoxy)acetyl-4-(2-iodophenyl)thiosemicarbazide] | 0.824 ± 0.030 | cytotoxic | – | increased | 2.691 ± 0.127 | 4% | 46% | 28% | 22% | not toxic | – | – | 4.1439 | 5.4574 | 112 ± 4.76 µM | > 250 µM | 631 µM |
| O=C(COc1ccc(Cl)cc1Cl)NNC(=S)Nc1cccc2ccccc12 [PK9, 1-(2,4-dichlorophenoxy)acetyl-4-(1-naphtyl)thiosemicarbazide] | 0.375 ± 0.018 | cytotoxic | – | reduction | 0.354 ± 0.022 | 3% | 41% | 26% | 30% | not toxic | – | – | 4.6425 | 6.1619 | 113 ± 4 µM | > 250 µM | 894 µM |
